# US20130065792A1, “INDUCIBLE EXPRESSION OF SGLT5, METHODS AND KITS USING THE SAME” (BOEHRINGER INGELHEIM INTERNATIONAL GMBH, priority 2011, published 2013)
# T1: SGLT5 (Homo sapiens, UniProt A0PJK1)
# T1 construct: expressed in transfected cells; host or cells: T-Rex 293 cells (Invitrogen), stably transfected with pT-Rex-Dest30-hSGLT5; expression induced with tetracycline; deposited clone DSM ACC3096
# T1 sequence (A0PJK1 1-596): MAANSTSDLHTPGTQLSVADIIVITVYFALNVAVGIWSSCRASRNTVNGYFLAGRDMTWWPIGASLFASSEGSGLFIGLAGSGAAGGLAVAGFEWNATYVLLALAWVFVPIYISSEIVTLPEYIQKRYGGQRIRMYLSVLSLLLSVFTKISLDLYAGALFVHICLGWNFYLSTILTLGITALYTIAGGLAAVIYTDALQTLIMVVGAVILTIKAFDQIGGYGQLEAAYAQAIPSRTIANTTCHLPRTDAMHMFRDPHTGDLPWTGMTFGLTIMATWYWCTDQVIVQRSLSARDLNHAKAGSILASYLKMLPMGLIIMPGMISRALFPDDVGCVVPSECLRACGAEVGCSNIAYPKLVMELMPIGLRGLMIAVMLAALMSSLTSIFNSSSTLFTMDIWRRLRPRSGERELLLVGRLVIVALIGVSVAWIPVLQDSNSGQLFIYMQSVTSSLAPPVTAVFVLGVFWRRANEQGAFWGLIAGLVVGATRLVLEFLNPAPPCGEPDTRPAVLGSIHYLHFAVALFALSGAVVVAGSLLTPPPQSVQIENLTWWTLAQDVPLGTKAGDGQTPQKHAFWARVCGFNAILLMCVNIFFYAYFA
# B1: SGLT5 (Homo sapiens) (protein)
# chain: T1 sequence (A0PJK1 1-596)
# notes: expressed in transfected cells; host or cells: T-Rex 293 cells (Invitrogen), stably transfected with pT-Rex-Dest30-hSGLT5; expression induced with tetracycline; deposited clone DSM ACC3096
# Legend:
# SGLT5 [1] = molecular target: T1, SGLT5; assay: Time dependent specific uptake of [14C]-monosaccharides by T-Rex 293-hSGLT5 cells (FIG. 3); type: cell-based; conditions: 1 mM monosaccharide, 5-60 min, tetracycline induced T-Rex 293-hSGLT5 cells
# Description: [^14C]-saccharide uptake experiments: 30000 cells per well were seeded in white poly-D-lysine-coated 96-well plates and incubated over night. The expression of hSGLT5 was induced 24 h before the start of uptake experiments by the addition of 1 μg/ml tetracycline to the cells. For the assay, cells were washed twice with 250 μl pre-treatment buffer [140 mM cholinchloride in basal buffer (10 mM HEPES; 5.4 mM KCl; 2.8 mM CaCl2*2 H2O; 1.2 mM MgSO4*7 H2O; 0.1% BSA, pH 7.4) and incubated in 200 μl pre-treatment buffer for 25 min at 37° C. Pre-treatment buffer was removed and 200 μl uptake buffer was added to the cells (140 mM NaCl in basal buffer containing 1 mM cold monosaccharide [either glucose, fructose, mannose, galactose or alphamethyl glucopyranoside (AMG), respectively]+0,6 μCi [^14C]-labelled monosaccharide [either glucose, fructose, mannose, galactose or alpha-methyl glucopyranoside (AMG), respectively] (Hartmann Analytics, Mannheim, Germany) and 10 μM Cytochalasin B. After incubation for 5, 10, 30 and 60 minutes at 37° C., the cells were washed three times with 300 μl PBS (Cambrex, Verviers, Belgium) and then lysed in 0.1 N NaOH with intermittent shaking for 5 min. The lysate was mixed with 200 μl MikroScint 40 Scintillator, shaken for 15 min and counted for radioactivity in the TopCount NXT (Canberra Packard, Schwadorf, Austria). Specific sugar uptake was determined by subtracting non-specific uptake of each sugar (in the presence of choline chloride) from total uptake of the same sugar (in the presence of sodium chloride).
# Furthermore, a protocol was established to measure the specific uptake of monosaccharides e.g. mannose, fructose, glucose, AMG and galactose by hSGLT5, It could be shown that the transporter takes up mannose and fructose with high affinity and hardly transports glucose, AMG and galactose (FIG. 3). […] Specific uptake was calculated by subtracting the respective monosaccharide uptake in the presence of choline chloride from the total uptake of the same monosaccharide in the presence of sodium chloride.
# SGLT5 [2] = molecular target: T1, SGLT5; assay: Km-determination for mannose, fructose and AMG uptake by T-Rex 293-hSGLT5 cells; type: cell-based; conditions: for Km: specific (sodium dependent) uptake of [14C]-sugar, 4 h, T-Rex 293-hSGLT5 cells, three assays in parallel, read-out: Affinity for SGLT5 (Km)
# Description: (§1) [^14C]-monosaccharide uptake inhibition experiments: Stable cell lines overexpressing human SGLT-5 were used for the sodium-dependent monosaccharide transport inhibition assay. Cells were pre-incubated in 200 μl uptake buffer (10 mM HEPES, 137 mM NaCl, 5.4 mM KCl, 2.8 mM CaCl2, 1.2 mM MgCl2, 50 μg/ml Gentamycin, 0.1% BSA) for 25 minutes at 37° C. 10 μM Cytochalasin B and test compound was added at different concentrations 15 minutes before the initiation of the uptake experiment.
# (§2) The uptake reaction was started by the addition of 0.6 μCi [^14C]-labelled monosaccharide i.e. [^14C]-labeled alpha-methyl glucopyranoside (AMG), glucose, fructose, mannose or myo-inositol, in 0.1 mM AMG (or the respective non-radioactive monosaccharide).
# (§3) After incubation for 60 minutes at 37° C., the cells were washed three times with 300 μl PBS (Cambrex, Verviers, Belgium) and then lysed in 0.1 N NaOH with intermittent shaking for 5 minutes. The lysate was mixed with 200 μl MicroScint 40 and shaken for 15 minutes and counted for radioactivity in the TopCount NXT (Canberra Packard, Schwadorf, Austria). The cells were pre-incubated in pre-treatment buffer (uptake buffer containing choline chloride instead of sodium chloride) for 25 minutes prior to addition of uptake buffer.
# Km-determination for mannose, fructose and Alpha-Methylglucose (AMG) uptake by SGLT5: The uptake of Mannose, Fructose and AMG was assayed as described under “[^14C]-monosaccharide uptake inhibition experiments” in the absence (nonspecific uptake) or presence of sodium (Total uptake) in the buffer at different concentrations of the respective monosaccharide for 4 h. From the difference of Total uptake and Nonspecific uptake the Specific uptake was calculated and the Km was determined using the Program Graph Pad Prism (LaJolla, Calif., USA).
# (§4) The measured affinity curves measured in three assays run in parallel are shown in FIG. 4A (for mannose), 4B (for fructose) and 4C (for AMG).
# SGLT5 [3] = molecular target: T1, SGLT5; assay: Competitive assay to inhibit C14-labeled AMG uptake into transfected HEK cells (Reference Example); type: cell-based; conditions: constitutive expression; called unreliable
# Description: SGLT5 was cloned as described in Example 1. However, instead of using the inducible pT-Rex-Dest30 plasmid the sequence was inserted into the expression plasmid pcDNA3.1/V5-His for constitutive expression. Using lipofection HEK/293 cells (ATCC) were stably transfected. The expression plasmid contained resistance to geneticin as a selection marker. The cells were cultivated in DMEM with 10% FCS and […] geneticin for selecting transfected cells. Expression was tested by RT-PCR.
# Furthermore, cells were tested for uptake of C^14-labeled galactose in an assay as described in Example 1. […] In addition, a competitive assay to inhibit C^14-labeled AMG uptake into the transfected HEK cells was performed.
# SGLT5 [4] = molecular target: T1, SGLT5; assay: FLIPR membrane potential assay in HEK/293 cells constitutively expressing SGLT5 (Reference Example); type: cell-based; conditions: constitutive expression; results later called unreliable and irreproducible
# Description: FLIPR assay: Changes in membrane potential can be assayed using the FLIPR TETRA Assay (Molecular Devices). In this method cells are loaded with a fluorescent dye, which emits light of a different wavelength dependent on the membrane potential. This can be recorded in suitable cell culturing plates and monitored over time in the presence/absence of a test substance.
# 10.000 to 30.000 cells were seeded in a 384 well plate (black, lysine coated with transparent bottom, Becton Dickinson) and were incubated over night at 37° C. and 5% CO2. The next day they were washed twice with 50 μl assay buffer (140 mM NaCl; 1.26 mM CaCl2; 0.49 mM MgCl2*6 H2O; 0.41 mM MgSO4*7 H2O; 5.33 mM KCl; 0.44 mM KH2PO4−pH =7.4). […]
# After starting the measurement ten sample points were assayed at intervals of 3 seconds. Thereafter […] of the dissolved test substances (e.g. monosaccharide and/or KCl) were added and 30 measurements were recorded in 3-second intervals, thereafter 16 measurements were recorded in 15-second intervals. […]
# Cells showing strong expression by PCR were subcloned and propagated. […] According to the fluorescence signal induced by KCl a number of 30,000 cells/well was determined to provide the highest fluorescence signal. […] Thereafter cells were exposed to glucose, galactose, fructose, AMG or mannose in different concentrations and changes in fluorescence were recorded as described in Example 1. […]
# SGLT5 [5] = molecular target: T1, SGLT5; assay: Uptake of C14-labeled galactose in HEK/293 cells constitutively expressing SGLT5 (Reference Example); type: cell-based; conditions: galactose 0.1 mM; constitutive expression; called unreliable
# Description: [^14C]-saccharide uptake experiments: 30000 cells per well were seeded in white poly-D-lysine-coated 96-well plates and incubated over night. The expression of hSGLT5 was induced 24 h before the start of uptake experiments by the addition of 1 μg/ml tetracycline to the cells. For the assay, cells were washed twice with 250 μl pre-treatment buffer [140 mM cholinchloride in basal buffer (10 mM HEPES; 5.4 mM KCl; 2.8 mM CaCl2*2 H2O; 1.2 mM MgSO4*7 H2O; 0.1% BSA, pH 7.4) and incubated in 200 μl pre-treatment buffer for 25 min at 37° C. […] The lysate was mixed with 200 μl MikroScint 40 Scintillator, shaken for 15 min and counted for radioactivity in the TopCount NXT (Canberra Packard, Schwadorf, Austria). Specific sugar uptake was determined by subtracting non-specific uptake of each sugar (in the presence of choline chloride) from total uptake of the same sugar (in the presence of sodium chloride). […]
# [6] = substrate: O=C(CO)[C@@H](O)[C@H](O)[C@H](O)CO; assay: Km-determination for mannose, fructose and AMG uptake by T-Rex 293-hSGLT5 cells; type: cell-based, human; conditions: other: specific (sodium dependent) uptake of [14C]-sugar, 4 h, three assays in parallel, 37.0 °C
# Description: as §1, §2
# as §3, with “The cells were pre-incubated in pre-treatment buffer (uptake buffer containing choline chloride instead of sodium chloride) for 25 minutes prior to addition of uptake buffer.” left out
# as §4
Molecule,specific uptake / affinity for hSGLT5 (in words) (SGLT5 [1]),Km fold higher than the Km for fructose (SGLT5 [2]; ratio of Km values),Km fold higher than the Km for mannose (SGLT5 [2]; ratio of Km values),Km (SGLT5 [2]),inhibitory effect on C14-labeled AMG uptake (in words) (SGLT5 [3]),"signal for depolarisation (FLIPR, in words) (SGLT5 [4])",uptake signal relative to the negative control (absolute cpm) (SGLT5 [5]),Km [6]
"COC1OC(CO)C(O)C(O)C1O (stereo not drawn) [AMG, alpha-methyl glucopyranoside]",very low affinity,at least 5 fold,at least 33 fold,10.1 mM,,,,
O=C(CO)[C@@H](O)[C@H](O)[C@H](O)CO [Fructose],high affinity,,6.67 fold,≤ 2 mM,,,,
O=C[C@H](O)[C@@H](O)[C@@H](O)[C@H](O)CO [galactose],very low affinity,,,,highest inhibitory effect,strongest signal for depolarisation,approximately 3 fold,
B1,,,,,,,,2.0 mM
